Target: HCV NS5B RNA dependent RNA polymerase (NS5BCΔ21) (Hepatitis C virus genotype 1b, UniProt P26663)
Test: HCV NS5B RdRp primer dependent elongation
Type: biochemical
Details: for inhibition at 100 µM: read-out: % Inhibition (100 μM) of HCV NS5B RdRp activity

Row | Compound | inhibition at 100 µM | IC50
1 | CCc1cccc2c3c([nH]c12)C(CC)(CC(=O)O)OCC3 (racemic) [Etodolac, (R,S) 2-[1,8-diethyl-1,3,4-tetrahydropyrano (3,4-b)indole-1-yl]acetic acid, reference compound] | ~10% | –
2 | CCNC(=S)NNC(=O)CC1(CC)OCCc2c1[nH]c1c(CC)cccc21 (centres unmarked) [Compound 3b, 1-[2-(1,8-Diethyl-1,3,4,9-tetrahydropyrano[3,4-b]indole-1-yl)acetyl]-4-ethyl thiosemicarbazide] | 49.9 ± 0.3% | –
3 | CCCNC(=S)NNC(=O)CC1(CC)OCCc2c1[nH]c1c(CC)cccc21 (centres unmarked) [Compound 3c, 1-[2-(1,8-Diethyl-1,3,4,9-tetrahydropyrano[3,4-b]indole-1-yl)acetyl]-4-propyl thiosemicarbazide] | 34.6 ± 1.1% | –
4 | CCCCNC(=S)NNC(=O)CC1(CC)OCCc2c1[nH]c1c(CC)cccc21 (centres unmarked) [Compound 3d, 1-[2-(1,8-Diethyl-1,3,4,9-tetrahydropyrano[3,4-b]indole-1-yl)acetyl]-4-butyl thiosemicarbazide] | 68.7 ± 0.9% | 29.2 ± 1.4 µM
5 | CCc1cccc2c3c([nH]c12)C(CC)(CC(=O)NNC(=S)NCc1ccccc1)OCC3 (centres unmarked) [Compound 3f, 1-[2-(1,8-Diethyl-1,3,4,9-tetrahydropyrano[3,4-b]indole-1-yl)acetyl]-4-benzyl thiosemicarbazide] | 23.4 ± 1.8% | –
6 | CCc1cccc2c3c([nH]c12)C(CC)(CC(=O)NNC(=S)Nc1ccccc1)OCC3 (centres unmarked) [Compound 3g, 1-[2-(1,8-Diethyl-1,3,4,9-tetrahydropyrano[3,4-b]indole-1-yl)acetyl]-4-phenyl thiosemicarbazide] | 38.9 ± 0.9% | –
7 | CCc1cccc2c3c([nH]c12)C(CC)(CC(=O)NNC(=S)NC1CCCCC1)OCC3 (centres unmarked) [Compound 3h, 1-[2-(1,8-Diethyl-1,3,4,9-tetrahydropyrano[3,4-b]indole-1-yl)acetyl]-4-cyclohexyl thiosemicarbazide] | 47.4 ± 0.9% | –
